# In patent publication US10160785B2, “Antimicrobial peptides and their use for the treatment of topical infections” (priority 2015, dated 2018):
# Where a SMILES comes first, the peptide text is derived from it.
# Experiments:
# [1] = tested on: Candida albicans (Olomouc); test: microbe, parasite or virus in culture; assay type: cell-based; details: RPMI broth microdilution, 35° C., 48 hours, visual
# Summary of the method: (§1)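 RPMI 1640/0.165 M MOPS microdilution; peptides 0.625–160 μmol.l^−1 as pipetted; final 5×10^2–2.5×10^3 CFU/ml; 35 °C, static, 48 h; visual MIC = no-growth endpoint.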
# [2] = tested on: Candida albicans ATCC MYA-2876; test: microbe, parasite or virus in culture; assay type: cell-based; details: RPMI broth microdilution, 35° C., 48 hours, visual
# Summary of the method: as §1
# [3] = tested on: Candida dubliniensis ATCC MYA-646; test: microbe, parasite or virus in culture; assay type: cell-based; details: RPMI broth microdilution, 35° C., 48 hours, visual
# Summary of the method: as §1
# [4] = tested on: Candida glabrata ATCC 2001; test: microbe, parasite or virus in culture; assay type: cell-based; details: RPMI broth microdilution, 35° C., 48 hours, visual
# Summary of the method: as §1
# [5] = tested on: Candida glabrata DSY 565; test: microbe, parasite or virus in culture; assay type: cell-based; details: RPMI broth microdilution, 35° C., 48 hours, visual
# Summary of the method: as §1
# [6] = tested on: Candida krusei ATCC 6258; test: microbe, parasite or virus in culture; assay type: cell-based; details: RPMI broth microdilution, 35° C., 48 hours, visual
# Summary of the method: as §1
# [7] = tested on: Candida tropicalis ATCC 750; test: microbe, parasite or virus in culture; assay type: cell-based; details: RPMI broth microdilution, 35° C., 48 hours, visual
# Summary of the method: as §1
# [8] = tested on: S. aureus (Liberec) biofilm; test: Bacterial biofilm, remaining metabolic activity (MTT); assay type: cell-based, Staphylococcus aureus; details: remaining metabolic activity of biofilm, 20 h
# Summary of the method: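 Biofilms of S. aureus or P. aeruginosa (Liberec) were grown 24 h at 37° C with shaking in BHI plus 1% glucose from ca. 10^8 CFU/ml inocula. After washing, biofilms were exposed 20 h to peptides at 1–128 μmol.l^−1. Surviving metabolic activity was measured by MTT (40 min, formazan in DMSO, A540) as percent of untreated biofilm, blank-corrected.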
structure (smiles),measurement,setting,value
CCCC[C@H](NC(=O)[C@H](CC(C)C)NC(=O)[C@H](CO)NC(=O)[C@H](CO)NC(=O)[C@H](CCCC)NC(=O)[C@@H](NC(=O)CN)[C@@H](C)CC)C(=O)N[C@@H](CCCCN)C(=O)N[C@@H](CCCCN)C(=O)N[C@@H](CC(C)C)C(=O)N[C@@H](CCCCN)C(=O)N[C@@H](CCCCN)C(=O)N[C@H](C(=O)N[C@H](C(=O)N[C@@H](C)C(=O)N[C@@H](CCCCN)C(N)=O)[C@@H](C)CC)[C@@H](C)CC [V] (HELM PEPTIDE1{G.I.[Nle].S.S.L.[Nle].K.K.L.K.K.I.I.A.K.[am]}$$$$V2.0),Antifungal activity MIC C. albicans Olomouc,[1],12.0 µM
same,Antifungal activity MIC C. albicans ATCC MYA-2876,[2],19.0 µM
same,Antifungal activity MIC C. dubliniensis ATCC MYA-646,[3],26.0 µM
same,Antifungal activity MIC C. glabrata ATCC 2001,[4],24.0 µM
same,Antifungal activity MIC C. glabrata DSY 565,[5],44.0 µM
same,Antifungal activity MIC C. krusei ATCC 6258,[6],5.0 µM
same,Antifungal activity MIC C. tropicalis ATCC 750,[7],1.0 µM
same,Metabolic activity (%) S. aureus (Liberec),[8]; peptide concentration 8 μmol · l^−1,83.0%
same,Metabolic activity (%) S. aureus (Liberec),[8]; peptide concentration 16 μmol · l^−1,71.0%
same,Metabolic activity (%) S. aureus (Liberec),[8]; peptide concentration 32 μmol · l^−1,49.5%
same,Metabolic activity (%) S. aureus (Liberec),[8]; peptide concentration 64 μmol · l^−1,26.0%
same,Metabolic activity (%) S. aureus (Liberec),[8]; peptide concentration 128 μmol · l^−1,0.0%
